Laboratory results: patent US20230048888A1, “USE OF TRIAZOLOTRIAZINE DERIVATIVE IN TREATMENT OF DISEASES” (ZHEJIANG VIMGREEN PHARMACEUTICALS, LTD., priority 2019, published 2023)
Read-outs that look alike come from different tables or passages of the source.

Legend:
[1] = Pharmacokinetics of Compounds 22, 27 and 40 in SD rats after oral administration for 7 consecutive days; type: in vivo; conditions: for Accumulation after consecutive administration: SD rats; for AUC / AUC(0-t) / Cmax / Tmax: rat, plasma; for AUC / Cavg / Cmin / AUC(0-t) / Cmax / Tmax: male SD rats; for AUC(0-t) / Cmax / Tmax: male, po, 30 mg/kg; for Tmax: median
Method: 12 male SD rats (about 7-9 weeks old on the day of administration, 283.0-298.1 g) were purchased from SPF (Beijing) Biotechnology Co., Ltd. They were randomly divided into 3 groups, with 4 rats in each group, and received orally administration once daily for 7 consecutive days. Compound 27 was administrated to Group 1 at 30 mg/kg, Compound 22 was administrated to Group 2 at 30 mg/kg, and Compound 40 was administrated to Group 3 at 30 mg/kg. All animals had free access to water and diet during dosing.
0.3366 g of Compound 27, 0.3333 g of Compound 22 and 0.3366 g of Compound 40 were weighed out respectively, and dissolved in 44 mL of PEG400 with stirring and ultrasonication; 50 mL of PBS was added to the resulting mixture, stirred and sonicated for complete dissolution; PBS was added to fix the volume to the final volume of 110 mL, thereby obtaining the target formulation solution with the final concentration of 3.0 mg/mL. The prepared formulation solution was divided into 7 portions, each of 15 mL, and stored in a refrigerator at 4° C. Before administration, the formulation was held at room temperature, until its temperature returned to room temperature; the formulation was stirred at room temperature for at least 10 minutes; and the stirring continued during the administration. The entire process for preparing the formulation was operated under yellow light, and during transferring, the prepared formulation was wrapped with tin foil to protect it from light.
The concentrations of Compounds 27, 22 and 40 in the plasma of SD rats were determined by liquid chromatography-mass spectrometry, with […] as the internal standard compound. With the mass spectrometer scanning in the electrospray ion source positive ion mode, the mass-to-charge ratios of parent ions to daughter ions in Compounds 27, 40 and 22 and tolbutamide were 395.2→178.2, 404.2→158.9, 393.4→146.2 and 455.2→165.0, respectively.
The pharmacokinetic parameters of Compounds 27, 40 and 22 were calculated by the software Phoenix™ WinNonlin Version 6.1 using the non-compartmental model. Pharmacokinetic data was calculated using the linear logarithmic trapezoidal method, with a weight of 1/Y*Y. Samples with the sample concentration below the lower limit of quantification were excluded from the calculation of pharmacokinetic parameters. […] The mean time to peak (Tmax) was represented as a median.

adenosine receptors A2A = target: T1, adenosine receptors A2A (Homo sapiens, UniProt P29274); assay: TR-FRET-based cAMP accumulation assay in hADORA2A-HEK293 cells; type: cell-based; conditions: NECA at EC80, hADORA2A-HEK293, read-out: A2AR activity (IC50)
T1 construct: expressed in transfected cells; host or cells: HEK293 (hADORA2A-HEK293)
Method: The inhibitory effects of the test compounds on the adenosine receptors A2A were evaluated by TR-FRET-based cAMP accumulation assay. The method included, in HEK293 cells (hADORA2A-HEK293) expressing A2AR, the production of cAMP stimulated by NECA and the inhibitory effect of A2A receptor antagonists on cAMP. All cells were cultured in a complete medium at 37° C. in the presence of 5% CO2. After being digested with trypsin, the cells were collected by centrifugation at 200 g for 5 minutes. The cells were resuspended in a fresh complete medium, and then the cell viability was counted by a trypan blue exclusion method. […] The cells were diluted with Hank's buffer solution containing HEPES (5 mM), BSA stabilizer (0.1%) and Rolipram (10 μM), then added to a 384-well white non-transparent plate (cells/well, 10 μl/well), and incubated with the test compound at an appropriate concentration (11 concentrations) for 20 minutes at room temperature. Then, the A2A receptor agonist NECA (final concentration=EC80, which was determined in the same experiment performed earlier) was added to the sample, and the sample was incubated again at 37° C. for 30 minutes.
An inhibition rate (%) was calculated according to the following formula, and an IC50 value was calculated from a concentration-inhibition (%) curve after log conversion.
A curve corresponding to the dose was fitted by using XLfit software and the IC50 was determined.

adenosine receptor A1 = target: T2, adenosine receptor A1 (Homo sapiens, UniProt P30542); assay: cAMP experiment on Gi-coupled adenosine receptor A1 (CHO); type: cell-based; conditions: cAMP accumulation, NECA EC80 + forskolin; read-out: IC50 (nM) CHO cells (ADORA1)
T2 construct: host or cells: CHO
T2 sequence (P30542 1-326): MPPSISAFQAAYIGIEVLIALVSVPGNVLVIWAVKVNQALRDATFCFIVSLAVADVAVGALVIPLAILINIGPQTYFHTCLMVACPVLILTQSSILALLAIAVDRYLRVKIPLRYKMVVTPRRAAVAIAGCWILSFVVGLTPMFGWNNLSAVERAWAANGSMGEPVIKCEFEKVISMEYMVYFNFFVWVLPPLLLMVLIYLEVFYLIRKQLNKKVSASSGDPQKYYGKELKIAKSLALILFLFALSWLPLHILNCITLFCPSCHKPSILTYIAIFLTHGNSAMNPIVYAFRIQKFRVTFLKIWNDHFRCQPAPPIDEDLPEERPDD
Method: In this experiment, a CHO cell strain stably expressing the adenosine receptor Al was taken as a study object (PerkinElmer, ES-010-C) for the experiment. […] A solution system for cell inoculation was 10 μL of cAMP experimental buffer. […] Likewise, 10 mM test compound was also subjected to 3-fold gradient dilution in 100% DMSO. 1 mM forskolin (Sigma, F3917) was prepared with 100% DMSO. The gradient-diluted reference compound and test compound and the 1 mM forskolin were added to a 384-well compound plate (Labcyte, PP-0200). 10 nL of the 1 mM forskolin per well and 10 nL of the gradient-diluted reference agonist NECA per well were transferred to a test plate containing cells by using Echo (Labcyte, 550), and the test plate was incubated for 30 minutes at 37° C. 5 μL of Eu-cAMP tracer working solution and 5 μL of ULight-anti-cAMP working solution (PerkinElmer, TRF0263) were added to the test plate per well, and the test plate was incubated for 30 minutes at 25° C. […] 1000×EC80 NECA was prepared with 100% DMSO. 10 nL of the reference inhibitor DPCPX gradient-diluted per well and 10 nL of the test compound gradient-diluted per well per well were transferred to a test plate containing the cells, and the test plate was incubated for 20 minutes at 25° C. 10 nL of 1000×EC80 NECA per well and 10 nL of 1 mM forskolin per well were transferred to the test plate The test plate was incubated for 30 minutes at 37° C. 5 μL of Eu-cAMP tracer working solution and 5 μL of ULight-anti-cAMP working solution were added to the test plate per well, and the test plate was incubated for 30 minutes at 25° C. The fluorescence signal ratio of each well in the test plate was read, and the IC50 value of the compound was calculated by using the output data of the reference inhibitor and test compound and the concentration of the compound.

[2] = oral 30 mg/kg once a day for 7 consecutive days
[3] = Sprague-Dawley, oral 30 mg/kg once a day for 7 consecutive days, Day 7, mean
[4] = oral 30 mg/kg once a day for 7 consecutive days, Day 7, mean
[5] = Sprague-Dawley (SD), oral 30 mg/kg once a day, Day 1, read-out: drug exposure AUC0-t
[6] = Sprague-Dawley (SD), oral 30 mg/kg once a day, Day 1, read-out: maximum plasma concentration Cmax
[7] = Sprague-Dawley (SD), oral 30 mg/kg once a day, seventh day, read-out: drug exposure AUC0-t
[8] = Sprague-Dawley (SD), oral 30 mg/kg once a day, seventh day, read-out: maximum plasma concentration Cmax
[9] = Sprague-Dawley, oral 30 mg/kg once a day for 7 consecutive days, Day 7, mean, read-out: AUC0-t
[10] = Sprague-Dawley, oral 30 mg/kg once a day for 7 consecutive days, Day 7, mean, read-out: Cmax
[11] = Sprague-Dawley, oral 30 mg/kg once a day for 7 consecutive days, Day 7
[12] = Sprague-Dawley, oral 30 mg/kg once a day, Day 1, mean, read-out: AUC0-t
[13] = Sprague-Dawley, oral 30 mg/kg once a day, Day 1, mean, read-out: Cmax
[14] = Sprague-Dawley, oral 30 mg/kg once a day, Day 1

T1 sequence (P29274 whole entry): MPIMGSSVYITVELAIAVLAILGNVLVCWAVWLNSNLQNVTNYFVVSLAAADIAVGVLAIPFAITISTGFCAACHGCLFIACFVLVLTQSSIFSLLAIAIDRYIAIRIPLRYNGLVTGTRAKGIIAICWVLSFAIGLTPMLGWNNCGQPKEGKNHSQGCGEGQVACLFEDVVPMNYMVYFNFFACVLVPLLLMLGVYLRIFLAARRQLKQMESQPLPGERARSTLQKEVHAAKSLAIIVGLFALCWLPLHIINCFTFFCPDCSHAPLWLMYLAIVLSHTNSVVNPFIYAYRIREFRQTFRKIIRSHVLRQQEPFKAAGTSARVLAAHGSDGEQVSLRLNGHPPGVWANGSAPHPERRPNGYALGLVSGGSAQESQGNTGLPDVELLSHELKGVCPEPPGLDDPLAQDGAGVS

| Compound | Accumulation after consecutive administration [1, 2] | AUC [1, 3] | Cavg [1, 4] | Cmin [1, 4] | AUC(0-t) [1, 5] | Cmax [1, 6] | AUC(0-t) [1, 7] | Cmax [1, 8] | AUC(0-t) [1, 9] | Cmax [1, 10] | Tmax [1, 11] | AUC(0-t) [1, 12] | Cmax [1, 13] | Tmax [1, 14] | IC50 (adenosine receptors A2A) | IC50 (adenosine receptor A1) |
| --- | --- | --- | --- | --- | --- | --- | --- | --- | --- | --- | --- | --- | --- | --- | --- | --- |
| Nc1nc(NCCc2ccc(NC3COC3)cc2)nc2nc(-c3ccco3)nn12 [Compound 22, 2-(furan-2-yl)-N5-(4-(oxetan-3-ylamino)phenethyl)-[1,2,4]triazolo[1,5-a][1,3,5]triazine-5,7-diamine] | do not show significant accumulation | 6950 ng·h/mL | 290 ng/mL | 11.4 ng/mL | 6630 ng·h/mL | 1020 ng/mL | 6950 ng·h/mL | 947 ng/mL | 6950 ng·h/mL | 947 ng/mL | 1.5 h | 6630 ng·h/mL | 1020 ng/mL | 4 h | 7.07 nM | 928 nM |
| COCCNc1ccc(CCNc2nc(N)n3nc(-c4ccco4)nc3n2)cc1 [Compound 27, 2-(furan-2-yl)-N5-(4-((2-methoxyethyl)amino)phenethyl)-[1,2,4]triazolo[1,5-a][1,3,5]triazine-5,7-diamine] | do not show significant accumulation | 22200 ng·h/mL | 925 ng/mL | 9.23 ng/mL | 29600 ng·h/mL | 7100 ng/mL | 22200 ng·h/mL | 4620 ng/mL | 22200 ng·h/mL | 4620 ng/mL | 1.5 h | 29600 ng·h/mL | 7100 ng/mL | 2 h | 10.6 nM | 679 nM |
| Cn1nnc(-c2ccc(CCNc3nc(N)n4nc(-c5ccco5)nc4n3)cc2)n1 [Compound 40, N5-(4-(2-methyl-2H-tetrazol-5-yl)phenethyl)-2-(furan-2-yl)-[1,2,4]triazolo[1,5-a][1,3,5]triazine-5,7-diamine] | do not show significant accumulation | 6580 ng·h/mL | 274 ng/mL | 52.3 ng/mL | 5150 ng·h/mL | 503 ng/mL | 6580 ng·h/mL | 581 ng/mL | 6580 ng·h/mL | 581 ng/mL | 4 h | 5150 ng·h/mL | 503 ng/mL | 3 h | 9.66 nM | 388 nM |
| CCn1c(=O)c2c(nc(/C=C/c3ccc(OC)c(OC)c3)n2C)n(CC)c1=O [Istradefylline, reference compound] |  |  |  |  |  |  |  |  |  |  |  |  |  |  |  | 1200 nM |
